Laboratory results reported in PMC12837263, “β,β-Dimethylacrylalkannin Restores Colistin Efficacy Against mcr- and TCS-Mediated Resistant Gram-Negative Bacteria via Membrane Disturbance” (Antibiotics, 2025).

What was measured:
Format in all cases: cell-based
[1] = tested on: K. pneumoniae, E. coli, Salmonella, P. aeruginosa, and A. baumannii; assay: Checkerboard assay, panel of tested strains (summary statements); settings: with β,β-Dim; summary over tested strains
Procedure: (§1) The FICI of β,β-Dim–colistin combination was determined by a checkerboard assay. Briefly, two-fold serial dilutions of β,β-Dim and colistin were prepared in a 96-well plate. After incubation at 37 °C for 18 h with bacterial suspension (10^6 CFU/mL), OD600 values were measured. FICI = (MICβ,β-Dim in combination/MICβ,β-Dim) + (MICcolistin in combination/MICcolistin). The synergistic effect of β,β-Dim with other antibiotics was measured in the same way. Synergy was considered to be an FICI ≤ 0.5.

[2] = tested on: K. pneumoniae 667; assay: Bacterial growth curves; settings: β,β-Dim 4 µg/mL, colistin 0.5 µg/mL, alone or combined; 24 h
Procedure: Overnight cultures of K. pneumoniae 667 and E. coli 13f4 were diluted to 10^6 CFU/mL; then, β,β-Dim (4 μg/mL), colistin (0.5 or 2 μg/mL), and their combination were co-incubated with bacterial suspensions in a 96-well plate. OD600 values were monitored hourly over a 24 h period.

[3] = tested on: K. pneumoniae 667(phoP、pmrA、blaKPC); assay: Checkerboard assay (MIC, FICI); settings: 667
Procedure: as §1

[4] = tested on: E. coli BW25113-184-mcr-1; assay: Checkerboard assay (MIC, FICI); settings: BW25113-184-mcr-1
Procedure: as §1

[5] = tested on: K. pneumoniae ATCC 13883; assay: Checkerboard assay (MIC, FICI); settings: 13883
Procedure: as §1

[6] = tested on: K. pneumoniae 29(mcr-8、pmrB、blaNDM); assay: Checkerboard assay (MIC, FICI); settings: 29
Procedure: as §1

[7] = tested on: K. pneumoniae 20(mcr-1); assay: Checkerboard assay (MIC, FICI); settings: 20(mcr-1)
Procedure: as §1

[8] = tested on: E. coli ATCC 25922; assay: Checkerboard assay (MIC, FICI); settings: 25922
Procedure: as §1

[9] = tested on: S. Typhimurium 9891(mcr-1); assay: Checkerboard assay (MIC, FICI); settings: 9891
Procedure: as §1

[10] = tested on: E. coli BW25113-184; assay: Checkerboard assay (MIC, FICI); settings: BW25113-184
Procedure: as §1

[11] = tested on: S. Typhimurium ATCC 14028; assay: Checkerboard assay (MIC, FICI); settings: 14028
Procedure: as §1

[12] = tested on: K. pneumoniae 650(mgrB、phoP、pmrA、blaKPC); assay: Checkerboard assay (MIC, FICI); settings: 650
Procedure: as §1

[13] = tested on: K. pneumoniae 197(mcr-1、blaNDM); assay: Checkerboard assay (MIC, FICI); settings: 197
Procedure: as §1

[14] = tested on: K. pneumoniae 492(mcr-1、blaNDM); assay: Checkerboard assay (MIC, FICI); settings: 492
Procedure: as §1

[15] = tested on: E. coli BW25113-pmrBR93P(pmrB); assay: Checkerboard assay (MIC, FICI); settings: BW25113-pmrBR93P
Procedure: as §1

[16] = tested on: K. pneumoniae 251(mgrB、phoP、pmrA、blaKPC); assay: Checkerboard assay (MIC, FICI); settings: 251
Procedure: as §1

[17] = tested on: P. aeruginosa PAO1; assay: Checkerboard assay (MIC, FICI); settings: PAO1
Procedure: as §1

[18] = tested on: P. aeruginosa 9(mcr-1); assay: Checkerboard assay (MIC, FICI); settings: P. aeruginosa 9
Procedure: as §1

[19] = tested on: E. coli 13f4(mcr-1); assay: Checkerboard assay (MIC, FICI); settings: 13f4
Procedure: as §1

[20] = tested on: K. pneumoniae 126(mcr-8); assay: Checkerboard assay (MIC, FICI); settings: 126
Procedure: as §1

[21] = tested on: K. pneumoniae 57(mcr-9、blaNDM); assay: Checkerboard assay (MIC, FICI); settings: 57
Procedure: as §1

[22] = tested on: A. baumannii ATCC 19606; assay: Checkerboard assay (MIC, FICI); settings: 19606
Procedure: as §1

[23] = tested on: K. pneumoniae 109(mcr-8); assay: Checkerboard assay (MIC, FICI); settings: 109
Procedure: as §1

[24] = tested on: E. coli ZJ71(mcr-1); assay: Checkerboard assay (MIC, FICI); settings: ZJ71
Procedure: as §1

[25] = tested on: E. coli BW25113-pmrAD82N(pmrA); assay: Checkerboard assay (MIC, FICI); settings: BW25113-pmrAD82N
Procedure: as §1

[26] = tested on: E. coli pHSG299-mcr-3; assay: Checkerboard assay (MIC, FICI); settings: pHSG299-mcr-3
Procedure: as §1

Substance: colistin
- colistin MIC in combination [1]: ≤ 2 µg/mL
- reduction of colistin MIC [1]: 4–1024 fold
- bacterial growth (growth curves) [2]: neither β,β-Dim (4 µg/mL) nor colistin (0.5 µg/mL) alone inhibited the growth
- MIC of colistin ([3]; alone): 64 µg/mL
- Potentation ([3]; fold drop of colistin MIC): 128
- MIC of colistin [combination] ([3]; with β,β-Dim): 0.5 µg/mL
- MIC of colistin ([4]; alone): 4 µg/mL
- Potentation ([4]; fold drop of colistin MIC): 4
- MIC of colistin [combination] ([4]; with β,β-Dim): 1 µg/mL
- MIC of colistin ([5]; alone): 0.5 µg/mL
- Potentation ([5]; fold drop of colistin MIC): 4
- MIC of colistin [combination] ([5]; with β,β-Dim): 0.125 µg/mL
- MIC of colistin ([6]; alone): 64 µg/mL
- Potentation ([6]; fold drop of colistin MIC): 256
- MIC of colistin [combination] ([6]; with β,β-Dim): 0.25 µg/mL
- MIC of colistin ([7]; alone): 64 µg/mL
- Potentation ([7]; fold drop of colistin MIC): 64
- MIC of colistin [combination] ([7]; with β,β-Dim): 1 µg/mL
- MIC of colistin ([8]; alone): 0.125 µg/mL
- Potentation ([8]; fold drop of colistin MIC): 4
- MIC of colistin [combination] ([8]; with β,β-Dim): 0.0313 µg/mL
- MIC of colistin ([9]; alone): 16 µg/mL
- Potentation ([9]; fold drop of colistin MIC): 8
- MIC of colistin [combination] ([9]; with β,β-Dim): 2 µg/mL
- MIC of colistin ([10]; alone): 0.125 µg/mL
- Potentation ([10]; fold drop of colistin MIC): 4
- MIC of colistin [combination] ([10]; with β,β-Dim): 0.0313 µg/mL
- MIC of colistin ([11]; alone): 1 µg/mL
- Potentation ([11]; fold drop of colistin MIC): 2
- MIC of colistin [combination] ([11]; with β,β-Dim): 0.5 µg/mL
- MIC of colistin ([12]; alone): 32 µg/mL
- Potentation ([12]; fold drop of colistin MIC): 16
- MIC of colistin [combination] ([12]; with β,β-Dim): 2 µg/mL
- MIC of colistin ([13]; alone): 4 µg/mL
- Potentation ([13]; fold drop of colistin MIC): 8
- MIC of colistin [combination] ([13]; with β,β-Dim): 0.5 µg/mL
- MIC of colistin ([14]; alone): 4 µg/mL
- Potentation ([14]; fold drop of colistin MIC): 32
- MIC of colistin [combination] ([14]; with β,β-Dim): 0.125 µg/mL
- MIC of colistin ([15]; alone): 8 µg/mL
- Potentation ([15]; fold drop of colistin MIC): 32
- MIC of colistin [combination] ([15]; with β,β-Dim): 0.25 µg/mL
- MIC of colistin ([16]; alone): 512 µg/mL
- Potentation ([16]; fold drop of colistin MIC): 1024
- MIC of colistin [combination] ([16]; with β,β-Dim): 0.5 µg/mL
- MIC of colistin ([17]; alone): 1 µg/mL
- Potentation ([17]; fold drop of colistin MIC): 2
- MIC of colistin [combination] ([17]; with β,β-Dim): 0.5 µg/mL
- MIC of colistin ([18]; alone): 4 µg/mL
- Potentation ([18]; fold drop of colistin MIC): 8
- MIC of colistin [combination] ([18]; with β,β-Dim): 0.5 µg/mL
- MIC of colistin ([19]; alone): 4 µg/mL
- Potentation ([19]; fold drop of colistin MIC): 4
- MIC of colistin [combination] ([19]; with β,β-Dim): 1 µg/mL
- MIC of colistin ([20]; alone): > 512 µg/mL
- Potentation ([20]; fold drop of colistin MIC): 1024
- MIC of colistin [combination] ([20]; with β,β-Dim): 0.5 µg/mL
- MIC of colistin ([21]; alone): 2 µg/mL
- Potentation ([21]; fold drop of colistin MIC): 32
- MIC of colistin [combination] ([21]; with β,β-Dim): 0.0625 µg/mL
- MIC of colistin ([22]; alone): 0.5 µg/mL
- Potentation ([22]; fold drop of colistin MIC): 64
- MIC of colistin [combination] ([22]; with β,β-Dim): 0.0078 µg/mL
- MIC of colistin ([23]; alone): 16 µg/mL
- Potentation ([23]; fold drop of colistin MIC): 64
- MIC of colistin [combination] ([23]; with β,β-Dim): 0.25 µg/mL
- MIC of colistin ([24]; alone): 4 µg/mL
- Potentation ([24]; fold drop of colistin MIC): 8
- MIC of colistin [combination] ([24]; with β,β-Dim): 0.5 µg/mL
- MIC of colistin ([25]; alone): 16 µg/mL
- Potentation ([25]; fold drop of colistin MIC): 32
- MIC of colistin [combination] ([25]; with β,β-Dim): 0.5 µg/mL
- MIC of colistin ([26]; alone): 2 µg/mL
- Potentation ([26]; fold drop of colistin MIC): 16
